Source: US20210251963A1, “UREA DERIVATIVES FOR USE IN THE TREATMENT OF SUBJECTS WITH ELEVATED EXPRESSION AND/OR ACTIVITY OF SRPK1” (Scandion Oncology A/S, priority 2018, published 2021)

Key:
Assay in all cases: Premier Screen kinase activity screening (33P ATP filter binding)
Assay type in all cases: biochemical
Settings in all cases: 10 μM SCO-101, mean of assay duplicates, read-out: Kinase activity (percentage of DMSO control)
Aurora B = molecular target: T1, Aurora B (Homo sapiens, UniProt Q96GD4)
T1 construct: purchased MRC in Dundee (Premier Screen service)
From the text: (§1) The kinase activity screening was done at MRC in Dundee. The screen was a so-called “Premier Screen” with 140 kinases. More specific information can be found here: http://www.kinase-screen.mrc.ac.uk/services/premier-screen
(§2) The method is based on a radioactive filter binding assay using 33P ATP (Hastie, et al 2006. Nat Protoc. 2006; 1(2):968-71; Bain, et al 2007. Biochem J. 2007 Dec. 15; 408(3):297-315). This method is sensitive, accurate and provides a direct measure of kinase enzyme activity. A concentration of 10 μM SCO-101 was used.
(§3) In the table below, the data is portrayed as the mean percentage activity of assay duplicates and a standard deviation. These percentage activities were calculated in comparison to DMSO controls. 10 μM SCO-101 reduced the activity of SRPK1 to 6% of the DMSO control.

BRSK2 = molecular target: T2, BRSK2 (Homo sapiens, UniProt Q8IWQ3)
T2 construct: MRC in Dundee (screening service)
From the text: as §1, §2, §3

CDK9-Cyclin T1 = molecular target: T3, CDK9-Cyclin T1 (Homo sapiens, UniProt P50750)
T3 construct: purchased MRC Dundee, Premier Screen (contract screening service)
From the text: as §1, §2, §3

CK1δ = molecular target: T4, CK1δ (Homo sapiens, UniProt P48730)
T4 construct: purchased MRC Dundee, Premier Screen (contract screening service)
From the text: as §1, §2, §3

CLK2 = molecular target: T5, CLK2 (Homo sapiens, UniProt P49760)
T5 construct: MRC in Dundee (screening service)
From the text: as §1, §2, §3

DAPK1 = DAPK1 (Homo sapiens, UniProt P53355)
From the text: as §1, §2, §3

EF2K = molecular target: T6, EF2K (Homo sapiens, UniProt O00418)
T6 construct: MRC Dundee (screening service)
From the text: as §1, §2, §3

EIF2AK3 = molecular target: T7, EIF2AK3 (Homo sapiens, UniProt Q9NZJ5)
T7 construct: MRC Dundee (screening service)
From the text: as §1, §2, §3

EPH-B2 = EPH-B2 (Homo sapiens, UniProt P29323)
From the text: as §1, §2, §3

FGF-R1 = molecular target: T8, FGF-R1 (Homo sapiens, UniProt P11362)
T8 construct: purchased MRC in Dundee (Premier Screen service)
T8 sequence (P11362 22-822, species assumed): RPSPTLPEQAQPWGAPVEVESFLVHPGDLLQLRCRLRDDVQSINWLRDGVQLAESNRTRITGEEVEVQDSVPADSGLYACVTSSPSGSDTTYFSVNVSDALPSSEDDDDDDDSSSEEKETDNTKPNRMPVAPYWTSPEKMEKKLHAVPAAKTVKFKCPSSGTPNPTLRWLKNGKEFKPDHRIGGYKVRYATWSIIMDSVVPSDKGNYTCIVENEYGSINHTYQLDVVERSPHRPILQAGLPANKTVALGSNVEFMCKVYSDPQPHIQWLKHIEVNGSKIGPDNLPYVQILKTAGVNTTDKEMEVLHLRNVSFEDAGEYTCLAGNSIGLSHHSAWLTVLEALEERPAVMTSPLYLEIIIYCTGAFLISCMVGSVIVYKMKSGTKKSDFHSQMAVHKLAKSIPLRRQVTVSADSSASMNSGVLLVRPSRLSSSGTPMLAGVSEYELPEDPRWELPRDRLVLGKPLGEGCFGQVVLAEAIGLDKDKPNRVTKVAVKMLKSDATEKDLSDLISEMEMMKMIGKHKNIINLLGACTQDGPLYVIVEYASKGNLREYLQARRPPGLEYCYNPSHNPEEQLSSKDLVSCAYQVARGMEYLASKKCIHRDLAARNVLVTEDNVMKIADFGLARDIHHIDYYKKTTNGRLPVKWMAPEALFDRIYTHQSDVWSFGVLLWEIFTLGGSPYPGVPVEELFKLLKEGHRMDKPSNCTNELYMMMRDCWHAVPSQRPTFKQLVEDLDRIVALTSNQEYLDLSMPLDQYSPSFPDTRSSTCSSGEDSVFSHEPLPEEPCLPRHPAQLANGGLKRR
From the text: as §1, §2, §3

HIPK1 = molecular target: T9, HIPK1 (Homo sapiens, UniProt Q86Z02)
T9 construct: MRC Dundee (screening service)
From the text: as §1, §2, §3

HIPK3 = HIPK3 (Homo sapiens, UniProt Q9H422)
From the text: as §1, §2, §3

IGF-1R = molecular target: T10, IGF-1R (Homo sapiens, UniProt P08069)
T10 construct: purchased MRC in Dundee (Premier Screen service)
From the text: as §1, §2, §3

IKKb = molecular target: T11, IKKb (Homo sapiens, UniProt O14920)
T11 construct: MRC Dundee (screening service)
From the text: as §1, §2, §3

IKKe = molecular target: T12, IKKe (Homo sapiens, UniProt Q14164)
T12 construct: purchased MRC in Dundee (Premier Screen service)
From the text: as §1, §2, §3

IRAK4 = IRAK4 (Homo sapiens, UniProt Q9NWZ3)
From the text: as §1, §2, §3

MINK1 = molecular target: T13, MINK1 (Homo sapiens, UniProt Q8N4C8)
T13 construct: purchased MRC in Dundee (Premier Screen service)
From the text: as §1, §2, §3

MKK1 = MKK1 (Homo sapiens, UniProt Q02750)
From the text: as §1, §2, §3

NEK2a = molecular target: T14, NEK2a (Homo sapiens, UniProt P51955)
T14 construct: purchased MRC in Dundee (Premier Screen service)
From the text: as §1, §2, §3

NEK6 = molecular target: T15, NEK6 (Homo sapiens, UniProt Q9HC98)
T15 construct: MRC in Dundee (screening service)
From the text: as §1, §2, §3

PAK6 = PAK6 (Homo sapiens, UniProt Q9NQU5)
From the text: as §1, §2, §3

PINK = molecular target: T16, PINK (Tribolium castaneum, UniProt D6WMX4)
T16 construct: purchased MRC Dundee, Premier Screen (contract screening service)
From the text: as §1, §2, §3

PKA = molecular target: T17, PKA (Homo sapiens, UniProt P17612)
T17 construct: purchased MRC Dundee, Premier Screen (contract screening service)
From the text: as §1, §2, §3

PKD1 = PKD1 (Homo sapiens, UniProt Q15139)
From the text: as §1, §2, §3

PRK2 = PRK2 (Homo sapiens, UniProt Q16513)
From the text: as §1, §2, §3

SIK3 = molecular target: T18, SIK3 (Homo sapiens, UniProt Q9Y2K2)
T18 construct: purchased MRC in Dundee (Premier Screen service)
From the text: as §1, §2, §3

Src = molecular target: T19, Src (Homo sapiens, UniProt P12931)
T19 construct: purchased MRC Dundee, Premier Screen (contract screening service)
From the text: as §1, §2, §3

TAK1 = molecular target: T20, TAK1 (Homo sapiens, UniProt O43318)
T20 construct: purchased MRC Dundee, Premier Screen (contract screening service)
From the text: as §1, §2, §3

TESK1 = molecular target: T21, TESK1 (Homo sapiens, UniProt Q15569)
T21 construct: purchased MRC in Dundee (Premier Screen service)
T21 sequence (Q15569 whole entry, species assumed): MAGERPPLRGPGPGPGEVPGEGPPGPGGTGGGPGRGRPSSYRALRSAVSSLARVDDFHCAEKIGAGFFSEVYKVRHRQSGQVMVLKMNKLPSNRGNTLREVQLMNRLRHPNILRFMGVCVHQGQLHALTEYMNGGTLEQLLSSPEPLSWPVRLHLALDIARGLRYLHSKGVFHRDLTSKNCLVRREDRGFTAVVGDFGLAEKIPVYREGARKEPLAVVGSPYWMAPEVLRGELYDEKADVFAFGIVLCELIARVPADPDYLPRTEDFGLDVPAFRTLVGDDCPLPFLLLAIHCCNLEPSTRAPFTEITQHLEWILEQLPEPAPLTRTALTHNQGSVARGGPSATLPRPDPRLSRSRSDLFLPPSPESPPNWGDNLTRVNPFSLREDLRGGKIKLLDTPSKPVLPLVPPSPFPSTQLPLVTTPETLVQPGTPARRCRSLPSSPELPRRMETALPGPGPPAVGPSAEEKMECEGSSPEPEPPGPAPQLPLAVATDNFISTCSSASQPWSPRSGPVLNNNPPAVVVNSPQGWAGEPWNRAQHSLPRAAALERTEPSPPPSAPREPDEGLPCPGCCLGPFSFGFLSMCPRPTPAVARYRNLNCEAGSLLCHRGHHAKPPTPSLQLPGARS
From the text: as §1, §2, §3

TTBK1 = molecular target: T22, TTBK1 (Homo sapiens, UniProt Q5TCY1)
T22 construct: MRC in Dundee (screening service)
T22 sequence (Q5TCY1 whole entry, species assumed): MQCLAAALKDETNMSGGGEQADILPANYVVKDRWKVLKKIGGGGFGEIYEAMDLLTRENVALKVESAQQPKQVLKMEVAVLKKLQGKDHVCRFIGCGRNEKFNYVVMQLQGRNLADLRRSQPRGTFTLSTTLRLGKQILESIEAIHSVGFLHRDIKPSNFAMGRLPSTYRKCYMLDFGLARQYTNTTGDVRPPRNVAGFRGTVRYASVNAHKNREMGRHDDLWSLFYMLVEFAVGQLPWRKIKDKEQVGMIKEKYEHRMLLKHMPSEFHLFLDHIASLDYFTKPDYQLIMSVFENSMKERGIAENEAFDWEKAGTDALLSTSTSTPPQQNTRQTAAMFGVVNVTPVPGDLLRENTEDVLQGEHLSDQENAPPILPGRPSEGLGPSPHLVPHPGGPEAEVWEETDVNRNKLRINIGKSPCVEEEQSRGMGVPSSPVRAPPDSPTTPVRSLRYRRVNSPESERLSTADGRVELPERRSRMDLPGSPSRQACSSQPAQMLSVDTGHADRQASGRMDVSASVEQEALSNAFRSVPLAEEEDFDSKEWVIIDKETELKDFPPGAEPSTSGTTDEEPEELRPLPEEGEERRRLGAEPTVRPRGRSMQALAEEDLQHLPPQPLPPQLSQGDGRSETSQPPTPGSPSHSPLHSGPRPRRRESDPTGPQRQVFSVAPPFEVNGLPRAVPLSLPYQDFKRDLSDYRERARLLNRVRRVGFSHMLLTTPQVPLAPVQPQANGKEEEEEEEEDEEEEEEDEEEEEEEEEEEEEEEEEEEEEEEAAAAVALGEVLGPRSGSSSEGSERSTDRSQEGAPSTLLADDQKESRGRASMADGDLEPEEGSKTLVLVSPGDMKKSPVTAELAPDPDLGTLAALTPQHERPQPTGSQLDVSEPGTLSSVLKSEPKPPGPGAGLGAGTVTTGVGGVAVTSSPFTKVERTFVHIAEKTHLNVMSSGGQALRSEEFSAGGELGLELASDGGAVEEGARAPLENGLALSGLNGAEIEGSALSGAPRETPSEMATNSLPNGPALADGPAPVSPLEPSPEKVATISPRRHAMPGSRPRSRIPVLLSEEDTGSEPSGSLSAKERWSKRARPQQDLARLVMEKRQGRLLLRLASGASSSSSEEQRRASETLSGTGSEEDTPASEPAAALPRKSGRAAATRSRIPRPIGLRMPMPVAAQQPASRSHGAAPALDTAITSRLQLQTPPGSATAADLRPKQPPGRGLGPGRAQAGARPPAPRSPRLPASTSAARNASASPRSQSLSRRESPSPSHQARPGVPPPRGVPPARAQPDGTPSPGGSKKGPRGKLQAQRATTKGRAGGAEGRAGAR
From the text: as §1, §2, §3

TTBK2 = molecular target: T23, TTBK2 (Homo sapiens, UniProt Q6IQ55)
T23 construct: purchased MRC Dundee, Premier Screen (contract screening service)
From the text: as §1, §2, §3

TrkA = molecular target: T24, TrkA (Homo sapiens, UniProt P04629)
T24 construct: purchased MRC in Dundee (Premier Screen service)
From the text: as §1, §2, §3

ULK1 = ULK1 (Homo sapiens, UniProt O75385)
From the text: as §1, §2, §3

WNK1 = molecular target: T25, WNK1 (Homo sapiens, UniProt Q9H4A3)
T25 construct: purchased MRC Dundee, Premier Screen (contract screening service)
T25 sequence (Q9H4A3 whole entry, species assumed): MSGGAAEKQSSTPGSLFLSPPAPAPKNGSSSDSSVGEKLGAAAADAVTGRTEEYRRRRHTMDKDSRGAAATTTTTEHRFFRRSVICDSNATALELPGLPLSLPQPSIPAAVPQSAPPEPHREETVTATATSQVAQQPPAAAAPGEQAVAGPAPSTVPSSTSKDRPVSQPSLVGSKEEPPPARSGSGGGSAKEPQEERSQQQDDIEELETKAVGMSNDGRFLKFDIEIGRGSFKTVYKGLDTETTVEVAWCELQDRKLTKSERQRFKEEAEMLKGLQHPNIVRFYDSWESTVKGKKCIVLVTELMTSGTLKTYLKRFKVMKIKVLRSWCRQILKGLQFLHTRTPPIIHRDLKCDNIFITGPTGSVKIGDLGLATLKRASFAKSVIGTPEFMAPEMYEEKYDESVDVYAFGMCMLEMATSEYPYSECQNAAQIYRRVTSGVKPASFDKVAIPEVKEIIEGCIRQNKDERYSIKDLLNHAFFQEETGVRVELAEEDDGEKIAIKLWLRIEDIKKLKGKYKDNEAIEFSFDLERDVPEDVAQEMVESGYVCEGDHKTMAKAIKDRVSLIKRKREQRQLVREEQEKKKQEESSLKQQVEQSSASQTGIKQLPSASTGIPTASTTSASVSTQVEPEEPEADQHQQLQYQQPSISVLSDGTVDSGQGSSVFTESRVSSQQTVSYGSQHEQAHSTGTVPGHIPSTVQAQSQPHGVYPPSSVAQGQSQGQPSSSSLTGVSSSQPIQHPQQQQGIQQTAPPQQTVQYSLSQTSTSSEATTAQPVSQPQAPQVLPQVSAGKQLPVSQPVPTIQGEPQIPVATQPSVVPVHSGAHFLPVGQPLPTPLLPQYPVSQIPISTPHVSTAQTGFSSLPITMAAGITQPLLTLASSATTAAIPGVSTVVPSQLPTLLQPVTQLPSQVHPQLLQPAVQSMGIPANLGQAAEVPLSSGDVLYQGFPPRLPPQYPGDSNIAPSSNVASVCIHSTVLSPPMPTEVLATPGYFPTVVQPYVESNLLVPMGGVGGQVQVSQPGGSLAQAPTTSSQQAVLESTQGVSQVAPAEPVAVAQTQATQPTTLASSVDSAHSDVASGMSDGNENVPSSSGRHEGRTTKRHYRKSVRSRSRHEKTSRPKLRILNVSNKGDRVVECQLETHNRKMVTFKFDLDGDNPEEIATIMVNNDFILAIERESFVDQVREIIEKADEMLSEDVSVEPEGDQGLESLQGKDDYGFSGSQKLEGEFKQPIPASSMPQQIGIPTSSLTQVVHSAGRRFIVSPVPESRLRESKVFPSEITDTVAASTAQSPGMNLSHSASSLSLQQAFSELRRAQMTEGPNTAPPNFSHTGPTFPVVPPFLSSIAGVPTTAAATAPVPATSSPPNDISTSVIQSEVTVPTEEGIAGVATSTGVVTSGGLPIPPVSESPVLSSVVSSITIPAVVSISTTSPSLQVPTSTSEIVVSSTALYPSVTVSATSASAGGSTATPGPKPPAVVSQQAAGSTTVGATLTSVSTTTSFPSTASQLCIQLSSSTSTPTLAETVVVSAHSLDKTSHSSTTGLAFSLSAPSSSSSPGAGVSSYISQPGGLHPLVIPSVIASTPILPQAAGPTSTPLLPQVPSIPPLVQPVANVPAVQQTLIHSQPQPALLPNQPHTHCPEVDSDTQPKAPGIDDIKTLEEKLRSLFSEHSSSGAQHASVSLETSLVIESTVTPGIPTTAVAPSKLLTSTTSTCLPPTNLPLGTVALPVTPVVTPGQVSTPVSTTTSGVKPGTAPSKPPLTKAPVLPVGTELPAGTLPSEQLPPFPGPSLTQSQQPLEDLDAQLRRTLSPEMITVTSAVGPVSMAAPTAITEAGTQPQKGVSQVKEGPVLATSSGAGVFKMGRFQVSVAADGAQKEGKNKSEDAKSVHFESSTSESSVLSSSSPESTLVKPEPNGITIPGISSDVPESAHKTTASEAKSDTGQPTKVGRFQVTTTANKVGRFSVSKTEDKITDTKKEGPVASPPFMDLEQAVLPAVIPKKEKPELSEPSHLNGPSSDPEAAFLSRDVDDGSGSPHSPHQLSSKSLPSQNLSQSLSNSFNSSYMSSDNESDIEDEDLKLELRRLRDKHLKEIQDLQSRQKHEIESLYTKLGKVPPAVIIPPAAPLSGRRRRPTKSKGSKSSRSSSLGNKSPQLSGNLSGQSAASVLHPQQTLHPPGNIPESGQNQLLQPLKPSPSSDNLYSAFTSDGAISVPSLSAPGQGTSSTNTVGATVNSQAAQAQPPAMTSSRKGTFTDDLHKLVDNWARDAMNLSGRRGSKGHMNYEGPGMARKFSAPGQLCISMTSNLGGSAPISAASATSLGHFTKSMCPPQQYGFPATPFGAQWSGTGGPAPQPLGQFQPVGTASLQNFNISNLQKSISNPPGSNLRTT
From the text: as §1, §2, §3

YES1 = molecular target: T26, YES1 (Homo sapiens, UniProt P07947)
T26 construct: MRC Dundee (screening service)
From the text: as §1, §2, §3

ZAP70 = molecular target: T27, ZAP70 (Homo sapiens, UniProt P43403)
T27 construct: MRC Dundee (screening service)
From the text: as §1, §2, §3

## O=C(Nc1cc(C(F)(F)F)cc(C(F)(F)F)c1)Nc1ccc(Br)cc1-c1nnn[nH]1 [SCO-101]
Aurora B
  remaining activity at 10 µM: 61%
BRSK2
  remaining activity at 10 µM: 81%
CDK9-Cyclin T1
  remaining activity at 10 µM: 104%
CK1δ
  remaining activity at 10 µM: 107%
CLK2
  remaining activity at 10 µM: 86%
DAPK1
  remaining activity at 10 µM: 112%
EF2K
  remaining activity at 10 µM: 95%
EIF2AK3
  remaining activity at 10 µM: 103%
EPH-B2
  remaining activity at 10 µM: 117%
FGF-R1
  remaining activity at 10 µM: 123%
HIPK1
  remaining activity at 10 µM: 98%
HIPK3
  remaining activity at 10 µM: 121%
IGF-1R
  remaining activity at 10 µM: 128%
IKKb
  remaining activity at 10 µM: 99%
IKKe
  remaining activity at 10 µM: 75%
IRAK4
  remaining activity at 10 µM: 112%
MINK1
  remaining activity at 10 µM: 173%
MKK1
  remaining activity at 10 µM: 118%
NEK2a
  remaining activity at 10 µM: 134%
NEK6
  remaining activity at 10 µM: 90%
PAK6
  remaining activity at 10 µM: 123%
PINK
  remaining activity at 10 µM: 104%
PKA
  remaining activity at 10 µM: 106%
PKD1
  remaining activity at 10 µM: 122%
PRK2
  remaining activity at 10 µM: 120%
SIK3
  remaining activity at 10 µM: 39%
Src
  remaining activity at 10 µM: 105%
TAK1
  remaining activity at 10 µM: 107%
TESK1
  remaining activity at 10 µM: 54%
TTBK1
  remaining activity at 10 µM: 94%
TTBK2
  remaining activity at 10 µM: 109%
TrkA
  remaining activity at 10 µM: 25%
ULK1
  remaining activity at 10 µM: 114%
WNK1
  remaining activity at 10 µM: 105%
YES1
  remaining activity at 10 µM: 99%
ZAP70
  remaining activity at 10 µM: 99%
